In the test the target is T1, Isoform 2 of Nuclear receptor ROR-gamma (RORgT) (Homo sapiens, UniProt P51449).
T1 sequence (P51449 whole entry): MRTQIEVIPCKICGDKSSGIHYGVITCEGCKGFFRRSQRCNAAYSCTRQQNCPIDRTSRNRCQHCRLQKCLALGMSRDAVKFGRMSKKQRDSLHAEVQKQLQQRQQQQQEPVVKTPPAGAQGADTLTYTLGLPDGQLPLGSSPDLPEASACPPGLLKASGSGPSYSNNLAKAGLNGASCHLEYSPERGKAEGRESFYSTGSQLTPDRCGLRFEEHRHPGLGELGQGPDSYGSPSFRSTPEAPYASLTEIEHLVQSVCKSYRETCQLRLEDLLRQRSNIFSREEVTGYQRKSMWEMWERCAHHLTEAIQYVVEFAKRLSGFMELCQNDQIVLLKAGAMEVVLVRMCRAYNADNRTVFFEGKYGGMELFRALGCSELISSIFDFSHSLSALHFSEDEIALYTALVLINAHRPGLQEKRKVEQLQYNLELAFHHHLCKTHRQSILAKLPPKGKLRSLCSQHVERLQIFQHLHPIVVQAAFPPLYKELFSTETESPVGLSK
In words: RORgamma Reporter Assay (Gal4). The protocol: The HEK293 cell line is co-transfected transiently with two plasmids, one with the RORγ ligand-binding domain fused to galactose-responsive transcription factor (Gal4), and the other with the luciferase reporter gene and Gal binding sites (UAS). This construction allows to determine the RORγ activity in a cellular system through the measurement of luminescence. A suspension of RORγ reporter cells was dispensed into plates and cultured 2 h at 37° C. and 5% CO2. Media formulation consisted in DMEM/F-12 medium (Gibco) supplemented with 10% heat inactivated FBS (Sigma-Aldrich), non-essential aminoacids (Sigma-Aldrich), 2 mM Glutamax (Gibco) and 100 U/mL penicillin (Sigma-Aldrich). Dose-response curves with compounds were prepared in 100% DMSO and further diluted 100-fold in culture medium. […] The following formula was used: activity=100*[1−[x test compound/average vehicle] where the theoretical minimum reduction (0% reduction).
Background: Reporter assays use an easily measured gene product as a stand-in for the process of interest.

What is called EC50 is the concentration at which the effect is half-maximal. Lower therefore signals an effect from little substance. `CN(Cc1cccc(C#N)c1)c1ncnc(NC[C@H]2CCN(CC(N)=O)C[C@@H]2O)c1F` [US20230271937, Example F2-08] returned an EC50 of 700 nM.

The values are drawn from BindingDB's records for patent US20230271937 (Nuevolution, 2023).
